Laboratory results published in patent US12570661B2, “Isoform-specific aldehyde dehydrogenase inhibitors” (The Board of Trustees of the Leland Stanford Junior …, priority 2020, dated 2026).
Entries after “also recorded” stand apart in the source; their conditions may differ. Where two headings read alike, the source gives them in different places. Values belong to the compound of their own block, whether it stands above or below them.

What was measured:
[1] = tested on: SW480 cells (spheroid); test: Matrigel spheroid growth / viability assay, SW480; format: cell-based; details: for GI50: Matrigel spheroid culture, 7 days, read-out: Spheroid SW480 GI50
Experimental: To prepare Matrigel-coated culture plates, 96-well and 24-well plates were placed on ice and coated with 25 μL or 300 μL, respectively, of Matrigel matrix (Corning, LDEV-free) that had been thawed overnight at 4° C. The plates were then placed in a 37° C. incubator for 30 min to allow the Matrigel to solidify. SW480 or HCT116 cells were suspended in spheroid culture medium (RPMI-1640 containing 20 ng/mL recombinant human epidermal growth factor (Abcam, ab9697), 20 ng/mL recombinant human fibroblast growth factor (BioVision, 4037), 5 μg/mL heparin (Sigma), 1× N-2 supplement (Thermo Fisher Scientific), 100 U/mL penicillin, and 100 μg/mL streptomycin) and then seeded into the 96-well and 24-well Matrigel-coated plates at densities of 1,000 or 5,000 cells/well and total well volumes of […] or 1 mL, respectively. Compounds were diluted in spheroid culture medium and added to the wells, and the spheroid were grown at 37° C. with 5% CO2 for 7 days.
To quantify spheroid growth at the 7-day endpoint, unstained spheroids were imaged with phase-contrast illumination using a Keyence BZ-X710 microscope. Some cultures were also stained with crystal violet to enable brightfield imaging. Briefly, the Matrigel spheroids cultures were treated with PBS containing 0.5% crystal violet and 5% methanol for 15 min at 37° C. and then gently washed 4×5 min with PBS. Spheroid sizes were quantified with ImageJ (Fiji) software using masks created with the default “Threshold” function and foreground/background adjustments to optimize masking fidelity. The full field of view was then selected for “Analyze Particles” analysis, providing numbered list of each spheroid and its area in the micrograph. In the few cases that two adjacent spheroids were treated as one object by the image processing software, their measurements were manually corrected using the “Freehand Selections” tool. To exclude background and debris from dead cells, spheroids with areas less than 500 μm^2 were excluded from the image analyses.
(§1) SW480 or HCT116 cells were seeded into regular or Matrigel-coated 96-well plates at a density of 1000 cells/well. The cells were cultured in the corresponding adherent or spheroid culture medium (200 μL/well) containing the designated compounds or an equivalent amount of DMSO vehicle. Each culture was maintained for 7 days, and then cell viabilities were measured using a CellTiter-Glo 3D Cell Viability Assay kit (Promega). Briefly, 100 μL of the culture medium was removed from each well and replaced with 100 μL 3D Cell Assay reagent. The cells in each well were next homogenized by vigorous pipetting, and the plate was incubated for 10 min at room temperature to stabilize the chemiluminescent signal. A 150-μL aliquot from each well was then transferred into a white opaque 96-well assay plate (flat-bottom and non-treated; Corning Costar) and luminescence intensities were measured with a Veritas microplate luminometer (Turner BioSystems).

[2] = biological target: T1, ALDH1B1 (Homo sapiens, UniProt P30837); test: ALDEFLUOR assay of cellular ALDH1B1 activity in ALDH1B1-transfected ALDH1A3−/− A375 cells; format: cell-based; details: for effect on ALDH1B1-dependent ALDEFLUOR signal (cellular ALDH1B1 activity): flow cytometry; for IC50: ALDEFLUOR, ALDH1B1-overexpressing ALDH1A3−/− A375 cells, read-out: ALDH1B1(in cellulo) IC50
T1 sequence (P30837 18-517): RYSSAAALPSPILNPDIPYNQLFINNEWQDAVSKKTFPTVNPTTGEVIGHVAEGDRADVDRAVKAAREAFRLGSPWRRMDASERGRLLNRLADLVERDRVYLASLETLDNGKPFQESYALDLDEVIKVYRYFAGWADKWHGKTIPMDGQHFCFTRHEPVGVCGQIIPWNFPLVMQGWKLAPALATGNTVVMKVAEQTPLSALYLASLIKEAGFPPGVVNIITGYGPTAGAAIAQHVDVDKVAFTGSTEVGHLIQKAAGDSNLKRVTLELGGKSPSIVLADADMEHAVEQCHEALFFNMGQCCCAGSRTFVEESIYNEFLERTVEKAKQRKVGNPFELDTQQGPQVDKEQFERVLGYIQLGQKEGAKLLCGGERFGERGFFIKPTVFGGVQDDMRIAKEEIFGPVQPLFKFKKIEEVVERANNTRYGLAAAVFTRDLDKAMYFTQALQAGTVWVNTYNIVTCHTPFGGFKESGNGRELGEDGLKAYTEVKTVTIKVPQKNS
Experimental: ALDH1A3^−/− A375 cells were seeded into a 6-well plate at a density of 5×10^5 cells/well and cultured for 24 h. The cells were then transfected with either pCMV6-entry, pCMV6-GFP (Addgene, plasmid 11153), or pCMV-ALDH1B1. After 24 h, the media was replaced and transfection efficiencies were estimated by the EGFP-positive cells in the pCMV-GFP-transfected well. The cells were cultured for another 24 h and their ALDH activities were quantified using the ALDEFLUOR assay. Briefly, the cells were isolated from the plate with trypsin and resuspended in ALDEFLUOR assay buffer (STEMCELL Technologies) at a concentration of 4×10^5 cells/mL. Each ALDEFLUOR assay used 0.5 mL of this cell suspension, and the cells were treated with individual compounds for 15 min at 37° C. and 5% CO2. The cell suspensions were then treated with 2.5 μL ALDEFLUOR reagent and incubated for an additional 30 min at 37° C. and 5% CO2. The cells were then collected by centrifugation (450×g) for 5 min at room temperature, resuspended in 200 μL assay buffer, and analyzed with an LSR II flow cytometer (BD Biosciences) at the Stanford FACS facility.

[3] = biological target: T1, ALDH1B1; test: ALDH1B1 enzyme kinetics assay (NADH fluorescence, acetaldehyde substrate); format: biochemical; set-up: made in house; host or cells: E. coli BL21 (optionally co-expressed with GroEL/GroES); details: for IC50: 1 μg/mL enzyme, 1 mM acetaldehyde, 1 mM NAD+, read-out: ALDH1B1(in vitro) IC50; for ALDH1B1 inhibition / isoform selectivity (in words): enzyme kinetics assays against ALDH isoforms
Experimental: Cloning, expression, and purification of human recombinant ALDH1A1, ALDH1A3, ALDH2, ALDH3A1, ALDH3A2, ALDH4A1, ALDH5A1 and ALDH7A1 isozymes were conducted as described previously (Chen, C. H. et al. (2015) Proc. Natl. Acad. Sci. U.S.A. 112, 3074-3079). Human ALDH1A2 (Origene, SC109995) and ALDH1B1 (T. Hurley, Indiana University) plasmids were cloned into the pET-15b expression vector (Novagen, 69661-3) containing an N-terminal hexahistidine tag. The mitochondria-targeting sequence of ALDH1B1 was also removed. For protein expression without chaperones, the pET-15b based plasmids were transformed into competent BL21 E. coli cells, which were subsequently grown in 1 L of Luria-Bertani medium containing 100 μg/mL ampicillin at 37° C. Once the OD600 value reached 0.6, the culture was transferred to 16° C. and 0.5 mM isopropyl β-d-1-thiogalactopyranoside was introduced to induce protein expression overnight. The bacteria were then pelleted by centrifugation (3000×g, 4° C. for 30 rain) and harvested. 40 mL BugBuster Master Mix buffer (MilliporeSigrna) containing a protease inhibitor cocktail (cOmplete; Roche) was added, and the cells were lysed by mechanically rolling the suspension at room temperature for 25 min. The lysate was centrifuged (16000×g, 4° C. for 30 min), and the soluble fraction was collected and mixed with 2 mL of Ni-NTA Superflow resin (Qiagen). After the mixture was avowed to rock at 4° C. for 1 h, it was used to create a 10-mL gravity column, which was sequentially treated with 40 mL of wash buffer 1 (20 mM sodium phosphate, 500 mM NaCl, 1 mM DTT, 20 mM imidazole, 5% glycerol, pH 7.4) and 25 mL of wash buffer 2 (20 mM sodium phosphate, 500 mM NaCl, 1 mM DTT, 40 mM imidazole, 5% glycerol, pH 7.4). The hexahistidine-tagged protein was then recovered by treated the column with 5 mL elution buffer (20 mM sodium phosphate, 500 mM NaCl, 1 mM DTT, 400 mM imidazole, 5% glycerol, pH 7.4) and collecting 500-μL fractions. The protein concentration for each fraction was measured (500 μL elution volume was collected as one fraction and was immediately mixed with 500 μL glycerol. The protein concentration for each fraction was measured (600 nm Protein Assay Reagent; Thermo Fisher Scientific), and protein-containing fractions were diluted with an equal volume of glycerol and stored at −80° C. Samples from each step were also collected for SDS-PAGE gel analysis. For ALDH1B1 protein co-expression with chaperones, pET-15b-ALDH1B1 and GroEL/GroES (Addgene, plasmid pBB541) plasmids were co-transformed into competent BL21 E. coli cells, which were subsequently grown in 1 L of Luria-Bertani medium containing 100 μg/mL ampicillin and 50 μg/mL spectinomycin at 37° C. The hexahistidine-tagged ALDH1B1 protein was then expressed and purified as described above.
To evaluate compound activities against ALDH isoforms, reaction mixtures consisting of enzyme assay buffer (100 mM sodium phosphate, 1 mM MgCl2, pH 8.0) and 0.1% DMSO, 1 mM β-mercaptoethanol, 1 mM NAD^+, and the bacterially expressed protein were prepared in white opaque 96-well assay plates (100 μL/well, flat-bottom and non-treated; Corning Costar). 5 μg/mL ALDH enzyme was used for single-dose (1, 10, 50 μM) compound test, and 1 μg/mL ALDH enzyme was used for IC50s determination. Acetaldehyde was then added to each well to achieve an initial substrate concentration of 1 mM, and the resulting enzymatic activity was measured based on NADH fluorescence. The fluorescence signal was read over the course of 10 min on a SpectraMax M2e microplate reader (340-nm excitation and 460-nm emission; Molecular Devices) operated by SoftMax Pro software. Compound activities were normalized to a DMSO control, and dose-response inhibition curves were fitted with four-parameter non-linear regression using Prism software. […]

[4] = tested on: SW480 cells (adherent); test: Cell viability assay, adherent SW480 cultures; format: cell-based, human; details: adherent culture, 7 days
Experimental: as §1

[5] = tested on: NIH-3T3 cells; test: Seahorse oxygen-consumption-rate assay (NIH3T3); format: cell-based, murine; details: Mus musculus
[6] = HEK-293T cytotoxicity (cell viability) assay; format: cell-based; details: human, HEK-293T cells; adherent HEK-293T, 4-5 days, CellTiter-Glo; read-out: HEK293T GI50
Experimental: HEK-293T cells were seeded into a 96-well plate at a density of 5×10^3 cells/well and treated with varying concentrations of selected compounds or an equivalent amount of DMSO vehicle. The cells were cultured for 4-5 days without a media change, and after the DMSO-treated cells approached 100% confluence, the cell viabilities were measured using a CellTiter-Glo 3D Cell Viability Assay kit (Promega) and a Veritas microplate luminometer (Turner BioSystems) as described above.

- effect on ALDH1B1-dependent ALDEFLUOR signal (cellular ALDH1B1 activity) [2]: inhibit cellular ALDH1B1 activity
Structure (SMILES): COc1ccccc1-c1ccc(C2=CN(c3ccccc3OC)C3=NCCCCN23)cc1 [Compound 72]
- efficacy on SW480 spheroid growth in combination with 5-FU ([1]; combination with 5-FU): closely matched the product of their individual activities

- effect on ALDH1B1-dependent ALDEFLUOR signal (cellular ALDH1B1 activity) [2]: inhibited; also recorded: abrogated
Structure (SMILES): CCN(CC)c1ccc(C=O)cc1 [DEAB, N-diethylaminobenzaldehyde, reference compound]

- GI50 ([1]; Homo sapiens, SW480, 168 h): 1100 nM
- IC50 [3]: 100 nM
- GI50 ([4]; Homo sapiens, SW480, 168 h): 1300 nM
Structure (SMILES): CCOc1ccc(C2=CN(c3ccc(-c4ccccc4OC)cc3)C3=NCCCCN23)c(OC)c1 [Guanidine 64]

- GI50 ([1]; Homo sapiens, SW480, 168 h): 1600 nM
- IC50 [3]: 130 nM
- GI50 ([4]; Homo sapiens, SW480, 168 h): 2900 nM
Structure (SMILES): CCOc1ccc(C2=CN(c3ccc(-c4ccccc4OC)cc3)C3=NCCCN23)c(OC)c1 [Guanidine 65]

Structure (SMILES): COc1ccccc1C1=CN(c2ccc(-c3ccccc3)cc2)C2=NCCCN12 [Guanidine 66]
- ALDH1B1 inhibition / isoform selectivity (in words) [3]: ALDH1B1-selective inhibitors
- effect on ALDH1B1-dependent ALDEFLUOR signal (cellular ALDH1B1 activity) [2]: inhibits cellular ALDH1B1 activity

- ALDH1B1 inhibition / isoform selectivity (in words) [3]: ALDH1B1-selective inhibitors
Structure (SMILES): Br.COc1ccccc1C1=CN(c2ccc(-c3ccccc3)cc2)C2=NCCCCN12 [Guanidine 68]

- IC50 [3]: 1900 nM
- IC50 [2]: 6700 nM
Structure (SMILES): CCOc1ccc(N2C=C(c3ccc(-c4ccccc4)cc3)N3CCCCN=C32)cc1 [Guanidine 73]
- IC50 [5]: 2400 nM

- IC50 [3]: 81 nM
- IC50 [2]: 110 nM
Structure (SMILES): COc1ccccc1N1C=C(c2ccc(-c3ccccc3)cc2)N2CCCCN=C21 [HPI-269]
- GI50 [6]: 3400 nM
- IC50 [5]: 580 nM

- IC50 [3]: 82 nM
- IC50 [2]: 110 nM
Structure (SMILES): COc1ccccc1N1C=C(c2ccc(-c3ccccc3)cc2)N2CC(C)(C)CN=C21 [HPI-279]

- potency against ALDH1B1 relative to imidazolium 2 (and 8) ([3]; dose-response, FIG. 15 panel d): approximately 2 fold
Structure (SMILES): COc1ccccc1-n1cc(-c2ccc(-c3ccncc3)cc2)[n+]2c1CCCCC2.[Br-] [Imidazolium 13]
- ALDH1B1 inhibition / isoform selectivity (in words) [3]: ALDH1B1-specific inhibitors; also recorded: enhanced specificity for ALDH1B1 in comparison to imidazolium 2

Structure (SMILES): COc1ccccc1C1=CN(c2ccc(-c3ccccc3)cc2)C2=NCCCN12 [STL5-T-0001]
- GI50 [1]: 1500 nM
- IC50 [3]: 98 nM
- GI50 [4]: 1900 nM

- IC50 [3]: 42 nM
Structure (SMILES): COc1cc(Cl)ccc1C1=CN(c2ccc(-c3ccccc3)cc2)C2=NCCCCN12 [STL5-T-0025]
- GI50 [6]: 5200 nM

- IC50 [3]: 44 nM
Structure (SMILES): CCc1ccccc1C1=CN(c2ccc(-c3ccccc3)cc2)C2=NCCCCN12 [STL5-T-0027]
- GI50 [6]: 4300 nM

- GI50 ([1]; Homo sapiens, SW480, 168 h): 440 nM
- IC50 [3]: 30 nM
- GI50 ([4]; Homo sapiens, SW480, 168 h): 2700 nM
Structure (SMILES): COc1cc(Cl)ccc1C1=CN(c2ccc(-c3ccccc3OC)cc2)C2=NCCCN12 [STL5-T-0057]
- GI50 [6]: 1700 nM

- IC50 [3]: 52 nM
Structure (SMILES): CCc1cc(Cl)ccc1C1=CN(c2ccc(-c3ccccc3)cc2)C2=NCCCN12 [STL8-T-0002]
- GI50 [6]: 1500 nM

- IC50 [3]: 74 nM
Structure (SMILES): CCc1cc(Cl)ccc1C1=CN(c2ccc(-c3ccccc3CC)cc2)C2=NCCCN12 [STL8-T-0003]
- GI50 [6]: 1300 nM
